From ChEMBL document CHEMBL5724558, “Image-based profiling of drug vulnerabilities in CRC organoids” (2024)
“And” between values parts separate entries of the source, which are not always exact repeats. Equal entries are not always repeated.

How the values were obtained:
Format in all cases: functional, Homo sapiens
Design in all cases: dose or concentration left out as unconfirmed
Colon cancer organoid [1] = test: Image-based profiling of donated chemical probes and chemogenomic kinase set in O09 CRC organoid. Image analysis is performed on the sum area metric, and the data were normalized to the DMSO control. After imaging the organoid viability is measured using the OneGloEX Luciferase Assay System. The normalized viability data and sum area are reported.
Colon cancer organoid [2] = test: Image-based profiling of donated chemical probes and chemogenomic kinase set in O06 CRC organoid. Image analysis is performed on the sum area metric, and the data were normalized to the DMSO control. After imaging the organoid viability is measured using the OneGloEX Luciferase Assay System. The normalized viability data and sum area are reported.
Colon cancer organoid [3] = test: Image-based profiling of donated chemical probes and chemogenomic kinase set in O21 CRC organoid. Image analysis is performed on the sum area metric, and the data were normalized to the DMSO control. After imaging the organoid viability is measured using the OneGloEX Luciferase Assay System. The normalized viability data and sum area are reported.

Row | Compound | Cell Viability (Colon cancer organoid [1]; Replication number 1) | Cell Viability (Colon cancer organoid [1]; Replication number 2) | Cell Viability (Colon cancer organoid [2]; Replication number 1) | Cell Viability (Colon cancer organoid [2]; Replication number 2) | Cell Viability (Colon cancer organoid [3]; Replication number 1) | Cell Viability (Colon cancer organoid [3]; Replication number 2)
1 | CO[C@@H](C)c1c(Nc2ccc([C@H](N(C)C(=O)C3CCS(=O)(=O)CC3)C(F)(F)F)cc2)cnc2cc(Cl)nn12 [NVS-MALT1] | 78.0421% and 97.349% | 96.1339% and 95.7573% | 53.942% and 90.6073% | 65.826% and 102.355% | 116.026% and 99.8545% | 97.0711% and 89.225%
2 | Cc1c(N2CCNCC2)nc2ccc(Br)cc2c1C(=O)NC[C@H](CCC(=O)O)c1ccccc1Cl [BAY-403] | 84.5203% and 109.166% | 120.857% and 102.102% | 84.3877% and 124.372% | 102.985% and 123.739% | 86.0908% and 103.128% | 96.6508% and 95.8532%
3 | O=C1c2ccc(Nc3ccc(F)cc3F)cc2CCc2ccc(OC[C@H](O)CO)cc21 [Skepinone-L] | 97.726% and 98.0993% | 77.28% and 97.9381% | 90.1352% and 107.854% | 111.788% and 116.531% | 124.274% and 139.142% | 112.785% and 100.442%
4 | CCOc1cc(N2CCC(O)CC2)ccc1Nc1ncc2c(n1)N(C1CCCC1)CCC(=O)N2C | 71.8666% and 49.1195% | 54.8924% and 49.401% | 54.2917% and 71.4425% | 45.2272% and 91.5167% | 101.764% and 118.746% | 133.409% and 125.513%
5 | CCCc1cc(C)[nH]c(=O)c1CNC(=O)c1cc(-c2ccc(N3CCN(C(C)C)CC3)nc2)cc2c1cnn2C(C)C | 144.261% and 110.819% | 125.635% and 91.796% | 117.017% and 105.342% | 150.35% and 108.975% | 90.7936% and 81.7113% | 90.0059% and 120.286%
6 | Nc1ccc(C(=O)Nc2cccc(-c3nc(N4CCOCC4)c4oc5ncccc5c4n3)c2)cn1 | 90.7287% and 76.048% | 104.901% and 91.2435% | 13.3803% and 32.049% | – | 74.5315% and 72.4739% | 83.2595% and 89.2407%
7 | COc1cc(-c2cn(C)c(=O)c3cnccc23)c(OC)cc1CN(C)C | 64.3431% and 76.9706% | 65.7343% and 74.6912% | 102.497% and 103.651% | 129.558% and 87.7058% | 113.788% and 114.043% | 122.408% and 119.749%
8 | OCCn1cc(-c2ccc3c(c2)CCC3=NO)c(-c2ccncc2)n1 | 111.659% and 102.228% | 89.8993% and 62.6286% | 89.1031% and 90.5828% | 141.492% and 108.175% | 88.6835% and 115.401% | 96.5689% and 114.574%
9 | Cc1c(Oc2ccc(F)cc2)c(OC(C)C)nn1-c1ccc(C2CC2)cn1 [IPP/CNRS-A019] | 105.275% and 104.102% | 106.079% and 88.8184% | 86.662% and 99.3522% | 111.4% and 120.615% | 82.2152% and 84.0306% | 88.4065% and 90.7546%
10 | CCN(CC)S(=O)(=O)Nc1cccc(-c2ccc3c(NC(=O)C4CC4)n[nH]c3c2)c1 | 118.731% and 102.205% | 162.059% and 116.31% | 115.301% and 130.405% | 90.7141% and 75.8621% | 106.348% and 90.1082% | 91.5896% and 92.3751%
11 | CC(=O)Nc1c(F)cc(C(=O)N[C@H]2CC[C@H](O)CC2)cc1O[C@@H](C)c1ccccc1 [GSK046] | 43.6665% and 86.4699% | 69.7579% and 96.7486% | 114.325% and 118.785% | 117.277% and 127.102% | 120.66% and 109.131% | 123.541% and 110.129%
12 | COc1ccc2c(O[C@@H]3C[C@H]4C(=O)N[C@]5(C(=O)O)CC5/C=C\CCCCC[C@H](NC(=O)OC5CCCC5)C(=O)N4C3)cc(-c3csc(NC(=O)C(C)C)n3)nc2c1C (stereo not given in full) [BI 1230] | 106.493% and 128.298% | 89.1059% and 82.6579% | 145.195% and 153.864% | 115.735% and 122.476% | 91.3171% and 103.622% | 114.827% and 120.408%
13 | CCC(=O)N1CCOc2c(cc(-c3ccc(OC)c(OC)c3)cc2OCC2CCCN(C)C2)C1 (stereo not given) | 89.2152% and 99.2272% | 160.901% and 114.888% | 144.88% and 142.792% | 105.633% and 74.0839% | 115.467% and 112.867% | 97.0638% and 103.64%
14 | Cc1noc(C)c1-c1cnc2c(-c3ccc(C(=O)O)cc3)cn([C@@H](C)c3ccccn3)c2c1 [PLX-51107] | 42.9449% and 37.558% | 38.2971% and 35.6351% | 28.5018% and 57.9866% | 31.105% and 59.0281% | 101.544% and 130.503% | 74.8766% and 126.73%
15 | CC[C@H](CC(=O)O)n1c(=O)c2ncccc2n(Cc2cn(C)c3cc(C)cc(C)c23)c1=O [BI-1942] | 76.1388% and 88.7208% | 109.791% and 100.317% | 122.43% and 127.53% | 114.507% and 111.004% | 98.903% and 90.5784% | 95.5994% and 107.07%
16 | CCc1ccccc1C(=O)Nc1n[nH]c2c(C)c(F)c(C3C(C#N)=C(C)N(C)C(C)=C3C#N)cc12 [BAY-3827] | 62.8379% and 77.8869% | 39.4727% and 62.2125% | 111.052% and 125.293% | 118.254% and 98.7859% | 104.538% and 100.129% | 99.5085% and 100.51%
17 | CN([C@@H]1CCc2c(CC(=O)O)c3ccccc3n2C1)S(=O)(=O)c1ccc(F)cc1 [MK-7246] | 131.189% and 119.936% | 71.8556% and 75.9401% | 103.187% and 97.4239% | 129.375% and 117.264% | 86.5772% and 112.354% | 98.7828% and 96.4286%
18 | O=C(Nc1nc2cccc(-c3ccc(CN4CCS(=O)(=O)CC4)cc3)n2n1)C1CC1 [FILGOTINIB] | 112.727% and 81.0348% | 92.6922% and 97.9922% | 93.5364% and 106.162% | 112.473% and 105.09% | 108.054% and 94.216% | 115.207% and 111.119%
19 | CCCCNNC(=O)c1ccc(Br)cc1 | 73.4793% and 89.7218% | 77.458% and 82.3883% | 141.347% and 94.2282% | 136.66% and 100.85% | 97.5198% and 109.34% | 111.608% and 95.0477%
20 | CC(C)(C#Cc1ccc(NC(=O)COc2ccccc2C(=O)c2ccccc2)c(Cl)c1)C(=O)O [BI 2439] | 115.901% and 103.937% | 114.023% and 92.0585% | 94.1417% and 101.057% | 69.7928% and 91.0899% | 94.7659% and 113.344% | 112.811% and 119.578%
21 | Cc1noc([C@H]2C[C@@H](c3ccc(C(F)(F)F)cc3)CN(C(=O)N3CCS(=O)(=O)C3)C2)n1 [BAY-448] | 144.748% and 117.786% | 135.729% and 111.574% | 117.281% and 106.792% | 86.8627% and 94.2849% | 88.3285% and 80.3363% | 88.286% and 95.9184%
